Assay [1] has as its target T1, Met kinase (Homo sapiens, UniProt P08581). In words: Met kinase inhibition, flashplate method (enzyme). It counts as biochemical. On the set-up: 6His (N); purchased Upstate 14-526; host or cells: Sf21 insect cells (S. frugiperda), baculovirus. An excerpt:
According to the manufacturer's data (Met, active, Upstate, catalogue No. 14-526), Met kinase is expressed for the purposes of protein production in insect cells (Sf21; S. frugiperda) and subsequent affinity-chromatographic purification as “N-terminal 6His-tagged” recombinant human protein in a baculovirus expression vector.
The test plates used are 96-well Flashplate® microtitre plates from Perkin Elmer (Cat. No. SMP200). The components of the kinase reaction described below are pipetted into the assay plate. The Met kinase and the substrate poly Ala-Glu-Lys-Tyr, (pAGLT, 6:2:5:1), are incubated for 3 hrs at room temperature with radioactively labelled ^33P-ATP in the presence and absence of test substances in a total volume of 100 μl. The reaction is terminated using 150 μl of a 60 mM EDTA solution. After incubation for a further 30 min at room temperature, the supernatants are filtered off with suction, and the wells are washed three times with 200 μl of 0.9% NaCl solution each time. The measurement of the bound radioactivity is carried out by means of a scintillation measuring instrument (Topcount NXT, Perkin-Elmer).
The full value used is the inhibitor-free kinase reaction. This should be approximately in the range 6000-9000 cpm. The pharmacological zero value used is staurosporin in a final concentration of 0.1 mM. The inhibitory values (IC50) are determined using the RS1_MTS program.
Kinase reaction conditions per well: • 30 μl of assay buffer • 10 μl of substance to be tested in assay buffer with 10% of DMSO • 10 μl of ATP (final concentration 1 μM cold, 0.35 μCi of ^33P-ATP) • 50 μl of Met kinase/substrate mixture in assay buffer; • (10 ng of enzyme/well, 50 ng of pAGLT/well) • Solutions used: • Assay buffer: • 50 mM HEPES • 3 mM magnesium chloride • 3 μM sodium orthovanadate • 3 mM manganese(II) chloride • 1 mM dithiothreitol (DTT) • pH=7.5 (to be set using sodium hydroxide) • Stop solution: • 60 mM Titriplex III (EDTA) • ^33P-ATP: Perkin-Elmer; • Met kinase: Upstate, Cat. No. 14-526, Stock 1 μg/10 μl; spec. activity 954 U/mg; • Poly-Ala-Glu-Lys-Tyr, 6:2:5:1: Sigma Cat. No. P1152 In-Vivo Tests
Target sequence in this assay (P08581 956-1390 limits assumed): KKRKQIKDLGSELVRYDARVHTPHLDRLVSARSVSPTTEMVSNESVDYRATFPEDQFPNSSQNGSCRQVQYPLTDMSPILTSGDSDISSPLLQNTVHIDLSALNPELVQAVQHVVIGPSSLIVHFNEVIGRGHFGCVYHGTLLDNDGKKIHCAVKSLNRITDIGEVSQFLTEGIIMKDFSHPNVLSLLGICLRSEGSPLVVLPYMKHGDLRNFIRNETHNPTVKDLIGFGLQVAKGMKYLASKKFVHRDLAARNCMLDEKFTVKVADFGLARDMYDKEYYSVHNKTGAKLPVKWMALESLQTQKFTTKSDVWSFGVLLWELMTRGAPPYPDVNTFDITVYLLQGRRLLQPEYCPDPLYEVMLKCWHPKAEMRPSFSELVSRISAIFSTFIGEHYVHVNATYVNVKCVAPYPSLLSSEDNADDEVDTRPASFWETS

Assay [2] concerns the target T1, Met kinase. In words: Met kinase inhibition (cell). It counts as cell-based.
Target sequence in this assay (P08581 25-1390): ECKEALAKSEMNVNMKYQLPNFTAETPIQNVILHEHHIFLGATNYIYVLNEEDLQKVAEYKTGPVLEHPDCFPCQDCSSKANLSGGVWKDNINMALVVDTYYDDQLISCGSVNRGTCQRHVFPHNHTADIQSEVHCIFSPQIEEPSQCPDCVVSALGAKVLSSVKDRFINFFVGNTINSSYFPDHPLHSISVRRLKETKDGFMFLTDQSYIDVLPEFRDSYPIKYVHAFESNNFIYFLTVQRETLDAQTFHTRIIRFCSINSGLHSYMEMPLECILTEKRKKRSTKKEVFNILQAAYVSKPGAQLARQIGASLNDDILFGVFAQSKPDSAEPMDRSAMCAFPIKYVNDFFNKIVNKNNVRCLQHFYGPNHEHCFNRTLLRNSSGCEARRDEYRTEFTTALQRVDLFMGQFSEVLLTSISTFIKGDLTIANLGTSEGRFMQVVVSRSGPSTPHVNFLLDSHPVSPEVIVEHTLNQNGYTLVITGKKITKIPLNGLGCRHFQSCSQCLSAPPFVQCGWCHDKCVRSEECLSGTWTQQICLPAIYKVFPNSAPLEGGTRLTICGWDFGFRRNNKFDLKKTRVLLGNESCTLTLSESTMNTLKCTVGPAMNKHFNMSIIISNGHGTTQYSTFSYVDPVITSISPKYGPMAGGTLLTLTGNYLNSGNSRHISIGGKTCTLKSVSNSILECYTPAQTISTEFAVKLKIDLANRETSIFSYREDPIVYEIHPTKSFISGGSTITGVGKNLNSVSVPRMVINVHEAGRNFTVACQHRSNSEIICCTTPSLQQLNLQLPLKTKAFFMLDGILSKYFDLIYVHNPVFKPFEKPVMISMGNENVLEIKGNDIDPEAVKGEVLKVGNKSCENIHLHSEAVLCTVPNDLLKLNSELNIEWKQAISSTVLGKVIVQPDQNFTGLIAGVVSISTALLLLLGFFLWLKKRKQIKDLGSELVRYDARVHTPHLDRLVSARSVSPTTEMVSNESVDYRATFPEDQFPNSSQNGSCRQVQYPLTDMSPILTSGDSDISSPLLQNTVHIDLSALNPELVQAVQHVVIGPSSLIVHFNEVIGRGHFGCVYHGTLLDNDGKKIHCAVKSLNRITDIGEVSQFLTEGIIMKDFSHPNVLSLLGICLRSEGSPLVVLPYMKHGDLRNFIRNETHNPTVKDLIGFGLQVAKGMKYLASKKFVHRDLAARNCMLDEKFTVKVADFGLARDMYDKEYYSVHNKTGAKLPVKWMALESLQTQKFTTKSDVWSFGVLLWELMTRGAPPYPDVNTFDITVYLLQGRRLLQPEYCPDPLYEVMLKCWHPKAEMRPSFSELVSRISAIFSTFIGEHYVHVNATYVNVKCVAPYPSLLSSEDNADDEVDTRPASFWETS

We go through 6 compounds from patent US8497266B2, “3-(3-pyrimidin-2-ylbenzyl)-1,2,4-triazolo[4,3-b]pyridazine derivatives as MET kinase inhibitors” (Merck Patent GmbH, priority 2008, dated 2013).

What is called IC50 is the point on the concentration scale where inhibition reaches its midpoint. Lower therefore signals greater potency in that assay. `Cn1cc(-c2ccc3nnc(C(F)(F)c4cccc(-c5ncc(Br)cn5)c4)n3n2)cn1` [Compound A3, 3-{[3-(5-bromopyrimidin-2-yl)phenyl]difluoromethyl}-6-(1-methyl-1H-pyrazol-4-yl)-1,2,4-triazolo[4,3-b]pyridazine]: the IC50 against Met kinase [1] and against Met kinase [2] was 1 to 100 nM in each case.
With `Cn1cc(-c2ccc3nnc(C(F)(F)c4cccc(-c5ncccn5)c4)n3n2)cn1` [Compound A26, 3-[difluoro-(3-pyrimidin-2-ylphenyl)methyl]-6-(1-methyl-1H-pyrazol-4-yl)-1,2,4-triazolo[4,3-b]pyridazine], the IC50 against Met kinase [1] and on Met kinase [2] was 1 to 100 nM each time.
Take `Cn1cc(-c2ccc3nnc(C(F)(F)c4cccc(-c5ncc(-c6cnn(CCN7CCCC7)c6)cn5)c4)n3n2)cn1` [Compound A7]: the half-maximal inhibitory concentration (IC50) on Met kinase [1] and on Met kinase [2] was 1 to 100 nM in each case.
As to `N#Cc1cccc(-c2ccc3nnc(C(F)(F)c4cccc(-c5ncc(Br)cn5)c4)n3n2)c1` [Compound A3a, 3-(3-{[3-(5-bromopyrimidin-2-yl)phenyl]difluoromethyl}-1,2,4-triazolo[4,3-b]-pyridazin-6-yl)benzonitrile], the IC50 against Met kinase [1] and at Met kinase [2] was 1 to 100 nM in each case.
Regarding `CN1CCN(c2cnc(-c3cccc(C(F)(F)c4nnc5ccc(-c6cnn(C)c6)nn45)c3)nc2)CC1` [Compound A16], the half-maximal inhibitory concentration (IC50) against Met kinase [1] and on Met kinase [2] was 1 to 100 nM in each case.
In the case of `OCCn1cc(-c2ccc3nnc(Cc4cccc(-c5ncc(Br)cn5)c4)n3n2)cn1` [Compound A43, 2-(4-{3-[3-(5-bromopyrimidin-2-yl)benzyl]-1,2,4-triazolo-[4,3-b]pyridazin-6-yl}pyrazol-1-yl)ethanol], the half-inhibitory concentration (IC50) at Met kinase [1] and against Met kinase [2] was 1 to 100 nM each time.
